# Measurements taken from patent US20240272171A1, “Methods for Identification of Exchangeable MHC Binding Peptides and Methods of Use Thereof” (PhenomeX Inc., priority 2020, published 2024).
# Tests used:
# HLA-A*02:01 [1] = target: T1, HLA-A*02:01 (Homo sapiens, UniProt P04439, D140Y/D185E/D98H/E176V/E277Q/G131W/G231S/I119V/I121R/I166T/I218V/L300P/L318F/N151K/N90K/P208A/P217A/Q86G/Q94H/R138H/R169H/T345S); test: Candidate in-place peptide exchange testing (loss of FITC signal, flow cytometry); format: binding; details: for exchange efficiency: FITC in-place peptide, 1 micromolar pHLA, 20 micromolar incoming peptide LMYAKRAFV, 10 mM GlyCha, room temperature, 4 hour; for suitability as in-place peptide (affinity and exchangeability): HLA-A*02:01, FIG. 29
# Text: Candidate peptides with a FITC-modified Lysine at Position 4 or 5 shown in Table 6 were purchased from a peptide manufacturer (Genscript). The fluorescent peptides were loaded into recombinant, biotinylated HLA-A*02:01 by a contract manufacturer (Biolegend). […] The peptide-HLA (pHLA) concentration in the reactions was 1 micromolar. The incoming peptide concentration was 20 micromolar.
# For the incoming peptide, the peptide sequence […] […] This may be used as a model for candidate antigenic peptides, which need to displace an in-place peptide stabilizing the MHC (e.g., loaded into the MHC complex), in methods of discovering antigenic peptides and methods of activating lymphocytes as described throughout the specification.
# After four hours, exchanged, unexchanged and non-fluorescent biotinylated HLA complexes were loaded onto Streptavidin coated capture beads. The HLA complex coated beads were analyzed for FITC Fluorescence on a Flow Cytometer.
# HLA-A*02:01 [2] = target: T1, HLA-A*02:01; test: Peptide switching on peptide-HLA-A*02:01 complex with DNP-labelled initial peptide (Example 21); format: binding
# Procedure: To test binding of Immunogenic and Non-Immunogenic peptides to an MHC Class I complex, a peptide-HLA-A*02:01 complex with an initial peptide [sequence] […] The initial peptide included a dinitrophenyl (DNP) moiety conjugated to the lysine at position 5. Two peptide antigens were then tested for their ability to bind to the MHC Class I complex: [sequence] […] The peptides were resuspended in DMSO to 5 mg/mL. The peptides were then further diluted ten-fold in PBS. To set up 0.05 mL peptide switching reactions, 20 micromolar [sequence] […] In addition, a control peptide switching reaction using the peptide [sequence] […]
# Samples of unswitched peptide-MHC and switched peptide-MHC were then captured on Streptavidin-coated DynaBeads (ThermoFisher). […] The peptide-MHC beads were then stored at 4° C. until they were analyzed for peptide exchange.
# To quantify peptide exchange, a FITC-conjugated anti-DNP antibody specific for the DNP-conjugated initial peptide was added to a sample of each captured peptide-MHC. […] The staining for pre-assembled peptide and intact pHLA complexes were detected by Flow Cytometry on a FACSCelesta with High-Throughput Sampler (BD Biosciences). […] Approximately 5,000 bead events were recorded for each sample. The Median Fluorescence Intensity (MFI) in the APC and FITC channels of each sample was then recorded. […]
# HLA-A*02:01 [3] = target: T1, HLA-A*02:01; test: Peptide binding and stability under culture conditions (Example 22); details: beads in T Cell Culture Media at 37° C.; W6/32 antibody MFI, exponential decay fit
# Procedure: To assess the stability of the pMHC Class I-peptide antigen complexes under the conditions that are used to culture T Cells, pMHC Class I complexes were first bound to beads. Biotinylated HLA-A*02:01 complexes loaded with either […] (SEQ ID NO: 5) or […] (SEQ ID NO: 6) peptides were diluted to 0.83 micrograms/mL in Assay Buffer (PBS with 2 mM EDTA and 0.1% Bovine Serum Albumin). To 0.6 mL of the pMHC solutions in microcentrifuge tubes, […] Streptavidin-coated DynaBeads (M-280, ThermoFisher) were added. The beads were mixed in the pMHC solution for 4 minutes at 2,000 rpm on a ThermoMixer (Eppendorf). The pMHC-beads were then captured on a magnetic rack, and the solution containing unbound pMHC removed by aspiration. 1 mL of Assay Buffer was added to the tubes, and then aspirated. The beads were then resuspended in 0.1 mL of Assay Buffer. The beads were then stored at 4° C. until use. […]
# Antibody binding to the beads was then detected on a FACSCelesta with High-Throughput Sampler (BD Biosciences). […] Approximately 25,000 bead events were recorded for each sample. The Median Fluorescence Intensity (MFI) in the APC channel for the pHLA-beads in each sample was then recorded. […] The half-lives for the pHLA complexes were then calculated from the fitted decay constant.
sequence,measurement,setting,value
FLAIKKLYVG,exchange efficiency,HLA-A*02:01 [1],about 0.65
GAATKMAAV,suitability as in-place peptide (affinity and exchangeability),HLA-A*02:01 [1],most suitable in-place peptides
GMGQKDSYV [ACTB (P60709) 46-54],exchange efficiency,HLA-A*02:01 [1],about 1.0
same,suitability as in-place peptide (affinity and exchangeability),HLA-A*02:01 [1],most suitable in-place peptides
LMYAKRAFV [TBA1A (Q71U36) 397-405; used as initial peptide and as incoming/displacing peptide],exchange efficiency,HLA-A*02:01 [1],about 0.30
SLLPIMWQLY [Non-Immunogenic peptide antigen derived from TCL1] [listing 1 of 2 here],percent peptide switching,HLA-A*02:01 [2],about 90%
SLLPIMWQLY [Non-Immunogenic peptide antigen derived from TCL1] [listing 2 of 2 here],half-life of peptide-HLA-A*02:01 complex,HLA-A*02:01 [3],about 0.5 hours
SLYSYFQKV [Immunogenic peptide antigen derived from SLC45A2] [listing 1 of 2 here],percent peptide switching,HLA-A*02:01 [2],about 99%
SLYSYFQKV [Immunogenic peptide antigen derived from SLC45A2] [listing 2 of 2 here],half-life of peptide-HLA-A*02:01 complex,HLA-A*02:01 [3],about 17 hours
